Assay results as given in ChEMBL document CHEMBL5500339, “4-Hydroxy-2-pyridone derivatives with antitumor activity produced by mangrove endophytic fungus Talaromyces sp. CY-3” (Eur J Med Chem, 2024).

Assays:
[1] = test system: A549; assay: Cytotoxicity against human A549 cells assessed as reduction in cell viability incubated for 48 hrs by MTT assay; format: functional, cell-based; conditions: A549, 48 h
[2] = test system: MDA-MB-231; assay: Cytotoxicity against human MDA-MB-231 cells assessed as reduction in cell viability incubated for 48 hrs by MTT assay; format: functional, cell-based; conditions: MDA-MB-231, 48 h
[3] = test system: MDA-MB-435; assay: Cytotoxicity against human MDA-MB-435 cells assessed as reduction in cell viability incubated for 48 hrs by MTT assay; format: functional, cell-based; conditions: MDA-MB-435, 48 h
[4] = test system: SNB-19; assay: Cytotoxicity against human SNB-19 cells assessed as reduction in cell viability incubated for 48 hrs by MTT assay; format: functional, cell-based; conditions: SNB-19, 48 h
[5] = test system: HCT-116; assay: Cytotoxicity against human HCT-116 cells assessed as reduction in cell viability incubated for 48 hrs by MTT assay; format: functional, cell-based; conditions: HCT-116, 48 h
[6] = test system: PC-3; assay: Cytotoxicity against human PC-3 cells assessed as reduction in cell viability incubated for 48 hrs by MTT assay; format: functional, cell-based; conditions: PC-3, 48 h
[7] = test system: A549; assay: Induction of cell cycle arrest in human A549 cells assessed as accumulation of cells at G1/G0 phase at 2 uM incubated for 24 hrs by flow cytometric analysis (reference value: 51.49 %); format: functional
[8] = test system: A549; assay: Induction of cell cycle arrest in human A549 cells assessed as accumulation of cells at S phase at 2 uM incubated for 24 hrs by flow cytometric analysis (reference value: 31.31 %); format: functional
[9] = test system: A549; assay: Induction of cell cycle arrest in human A549 cells assessed as accumulation of cells at G2/M phase at 2 uM incubated for 24 hrs by flow cytometric analysis (reference value: 17.2 %); format: functional
[10] = test system: NCI-H1703; assay: Induction of cell cycle arrest in human NCI-H1703 cells assessed as accumulation of cells at G1/G0 phase at 2 uM incubated for 24 hrs by flow cytometric analysis (reference value: 42.06 %); format: functional
[11] = test system: NCI-H1703; assay: Induction of cell cycle arrest in human NCI-H1703 cells assessed as accumulation of cells at S phase at 2 uM incubated for 24 hrs by flow cytometric analysis (reference value: 28.06 %); format: functional
[12] = test system: NCI-H1703; assay: Induction of cell cycle arrest in human NCI-H1703 cells assessed as accumulation of cells at G2/M phase at 2 uM incubated for 24 hrs by flow cytometric analysis (reference value: 29.88 %); format: functional

| Compound | IC50 [1] | IC50 [2] | IC50 [3] | IC50 [4] | IC50 [5] | IC50 [6] | Activity [7] | Activity [8] | Activity [9] | Activity [10] | Activity [11] | Activity [12] |
| --- | --- | --- | --- | --- | --- | --- | --- | --- | --- | --- | --- | --- |
| CC[C@H](C)C[C@@H](C)/C=C(\C)[C@@H]1O[C@H](c2c(O)c(-c3ccccc3)c[nH]c2=O)CC[C@H]1C | 3.89 µM | 5 µM | 7.29 µM | > 50 µM | > 50 µM | 11.4 µM |  |  |  |  |  |  |
| C/C=C/[C@@H]1Oc2c(-c3ccccc3)cn(O)c(=O)c2[C@@H]2[C@H]1CCC[C@H]2C | 32.7 µM | 20.1 µM | 20.3 µM | 20.3 µM | 14.4 µM | 49.1 µM |  |  |  |  |  |  |
| CC[C@H](C)C[C@@H](C)/C=C(\C)[C@H]1O[C@@H](c2c(O)c(-c3ccccc3)c[nH]c2=O)CC=C1C | 3.81 µM | 5.28 µM | 9.02 µM | 6.76 µM | 1.76 µM | 2.18 µM |  |  |  |  |  |  |
| CC[C@H](C)C[C@@H](C)/C=C(\C)[C@@H]1O[C@H](c2c(O)c(-c3ccc(O)cc3)cn(C)c2=O)CC[C@H]1C | 14.9 µM | 14.9 µM | 9.41 µM | 9.04 µM | 7.74 µM | 43 µM |  |  |  |  |  |  |
| CC[C@H](C)C[C@@H](C)/C=C(\C)[C@@H]1O[C@H](c2c(O)c(-c3ccc(O)cc3)cn(C)c2=O)CC[C@H]1CO | 8.41 µM | > 50 µM | 2.3 µM | > 50 µM | 10.5 µM | > 50 µM |  |  |  |  |  |  |
| CC[C@H](C)C[C@@H](C)/C=C(\C)[C@@H]1O[C@H](c2c(O)c(-c3ccccc3)cn(C)c2=O)CC[C@H]1C | 9.51 µM | 7.84 µM | 24.6 µM | 5.76 µM | 2.45 µM | 16.3 µM |  |  |  |  |  |  |
| CC[C@H](C)C[C@@H](C)/C=C(\C)[C@@H]1O[C@H](c2c(O)c(-c3ccc(O)cc3)cn(C)c2=O)CC[C@]1(C)O | 11.1 µM | 8.49 µM | 6.15 µM | > 50 µM | 10.5 µM | 8.1 µM |  |  |  |  |  |  |
| CC(=O)c1c(C)c2cnc(Nc3ccc(N4CCNCC4)cn3)nc2n(C2CCCC2)c1=O [PALBOCICLIB] |  |  |  |  |  |  | 89.43% | 5.87% | 4.7% | 72.21% | 6.88% | 20.91% |
| CC[C@H](C)C[C@@H](C)/C=C(\C)[C@@H]1O[C@H](c2c(O)c(-c3ccccc3O)cn(C)c2=O)CC[C@H]1C | > 50 µM | 12.7 µM | 6.95 µM | > 50 µM | 7.57 µM | 18.6 µM |  |  |  |  |  |  |
| CC[C@H](C)C[C@@H](C)/C=C(\C)[C@@H]1O[C@H](c2c(O)c(-c3ccc(O)cc3)cn(C)c2=O)CC=C1C | 48.9 µM | 43.1 µM | 34.9 µM | 40.4 µM | 29.2 µM | > 50 µM |  |  |  |  |  |  |
| CC[C@H](C)C[C@@H](C)/C=C(\C)[C@@H]1O[C@H](c2c(O)c(-c3ccc(O)cc3)c[nH]c2=O)CC[C@H]1C | 3.46 µM | 4.4 µM | 10 µM | > 50 µM | 2.51 µM | 6.65 µM |  |  |  |  |  |  |
| C/C=C/[C@@H]1Oc2c(-c3ccccc3)c[nH]c(=O)c2[C@@H]2[C@H]1CCC[C@H]2C | > 50 µM | > 50 µM | 29.5 µM | 13.4 µM | 16.8 µM | 36.1 µM |  |  |  |  |  |  |
